Read-outs that look alike come from different tables or passages of the source.
How the values were obtained:
osteoblast-like cells = settings: Kim et al. (2003), Ha (2003), cited from earlier work
ovariectomized rats = assay: ovariectomized rat osteoporosis animal model; assay type: in vivo; settings: femur, three months, dose not given
Method: Materials have been tested in ovariectomized rats, a popular and generally accepted osteoporosis animal model.
After orally dosing continuously for three months at 0.12, 0.25, 0.5 and 0.8 g/kg/day, twice a day, the bone mass index, wet weight and dry weight of femur, bone mineral densities of femur and lumbar were measured and calculated. Body weights of rats were measured weekly.
The effects of the purified composition on the body weight of the rats in the groups described above were determined.
We measured the body weight of each experimental animal group weekly.

UMR 106 cell line = settings: UMR 106 cells in vitro; Wang et al. 2001, Meng et al. 2004; cited from earlier work
[1] = system: human osteoblast-like cell lines, MG-63 and hFOB; settings: Kuo et al. (2005); cited from earlier work

Compound: O=C(O)C1=CO[C@@H](O[C@@H]2O[C@H](CO)[C@@H](O)[C@H](O)[C@H]2O)[C@@H]2C(CO)=CC[C@H]12 [GPA, geniposidic acid]
- proliferation of osteoblast-like cells (osteoblast-like cells): increases the proliferation of osteoblast-like cells
- proliferation of osteoblast-like cells (osteoblast-like cells; listed as geniposidic acid): increased the proliferation of osteoblast-like cells

Compound: COC(=O)C1=CO[C@@H](O[C@@H]2O[C@H](CO)[C@@H](O)[C@H](O)[C@H]2O)[C@@H]2C(CO)=CC[C@H]12 [geniposide]
- proliferation of osteoblast-like cells (osteoblast-like cells): increased the proliferation of osteoblast-like cells

Compound: NCCCC(O)(P(=O)(O)O)P(=O)(O)O [Fosamax ®]
- Wet Weight (mg/cm) ( x ± s) (ovariectomized rats): 205.8757 ± 18.32 mg/cm

Compound: OCC1=C[C@@H](O)[C@@H]2C=CO[C@@H](O[C@@H]3O[C@H](CO)[C@@H](O)[C@H](O)[C@H]3O)[C@H]12 [aucubin]
- proliferation of osteoblast-like cells (osteoblast-like cells): increased the proliferation of osteoblast-like cells

Compound: COc1c2ccoc2cc2oc(=O)ccc12 [Bergapten, bergapten]
- osteoblastic proliferation activity (UMR 106 cell line): less effective than osthole

Compound: COc1ccc2ccc(=O)oc2c1CC=C(C)C [Osthole, osthole]
- osteoblastic proliferation activity (UMR 106 cell line): significantly promoted the cells' activity
- differentiation of osteoblast-like cells [1]: significantly induced the differentiation

Compound: CC(C)=CCOc1c2occc2cc2ccc(=O)oc12 [imperatorin]
- osteoblastic proliferation activity (UMR 106 cell line): less effective than osthole

From patent US8153167B2, “Herbal medicine for osteoporosis and related conditions” (Medipearl Pte Ltd., priority 2007, dated 2012)
